Consider six compounds from patent US6436921B1, “Carbapenem derivatives and a preparation method thereof” (Korea Institute of Science and Technology, priority 1997, dated 2002).

The target of series [1] is renal enzyme (DHP-I) (Homo sapiens, UniProt P16444). The settings on record: FIG. 1.
Series [2] has as its system Escherichia coli 078. Kind of series: PD50 test using mice. It counts as in vivo. The conditions noted are these: for PD50: Escherichia coli 078. More on the design: PD50: unit not given beside the values. The text has this: (§1) This means that ⅓ of the amount of the compound 10 has the same effect as meropenem.
(§2) Streptococcus pyrogenes A 77 and Escherichia coli 078 were selected as gram-positive and gram-negative strains, respectively.

Series [3] relates to Streptococcus pyrogenes A 77. The series is described as follows: PD50 test using mice. It counts as in vivo. More on the design: PD50: unit not given beside the values. The settings on record: for PD50: Streptococcus pyrogenes A 77.
Source text: as §1, §2

The target in series [4] is DHP-I (renal dehydropeptidase-I) (Homo sapiens, UniProt P16444). The series is described as follows: in vitro.
Series [5] in a line: Bioavailability test, subcutaneous injection to mice. It counts as in vivo.
For series [6], the system named is Pseudomonas aeruginosa 1771. The series is described as follows: Antibacterial activity test (agar dilution MIC). The conditions noted are these: Pseudomonas aeruginosa 1771, agar; for MIC: read-out: Minimum inhibitory concentration. It counts as cell-based. As for the experimental part: (§3) Gram-positive Streptococcus and Staphylococcus and Gram-negative Escherichia coli, Pseudomonas, Salmonella, Klebsiella and Enterobacter were selected for the test. After the cells were diluted and cultured in agar, the compounds of the present invention were treated to obtain the minimum inhibitory concentration in the units of μg/ml.
Background: In agar dilution, organisms are placed on agar that contains the substance at set levels.

Series [7] relates to Pseudomonas aeruginosa 1592E. Kind of series: Antibacterial activity test (agar dilution MIC). The conditions noted are these: for MIC: read-out: Minimum inhibitory concentration. Format: cell-based. As to the method:
as §3

The test system of series [8] is Streptococcus pyogenes 77A. The series is described as follows: Antibacterial activity test (agar dilution MIC). Format: cell-based. The conditions noted are these: for MIC: read-out: Minimum inhibitory concentration. As to the method:
as §3

For series [9], the system named is Escherichia coli 078. The series is described as follows: Antibacterial activity test (agar dilution MIC). Format: cell-based. The settings on record: Escherichia coli 078, agar; for MIC: read-out: Minimum inhibitory concentration. As for the experimental part: as §3
In series [10] the test system is Staphylococcus aureus 285. Kind of series: Antibacterial activity test (agar dilution MIC). It counts as cell-based. The conditions noted are these: Staphylococcus aureus 285, agar; for MIC: read-out: Minimum inhibitory concentration. As for the experimental part: as §3
Series [11] has as its system Enterobacter cloacae 1321E. Kind of series: Antibacterial activity test (agar dilution MIC). It counts as cell-based. The settings on record: for MIC: read-out: Minimum inhibitory concentration. As for the experimental part: as §3
For series [12], the system named is Escherichia coli DC0. The series is described as follows: Antibacterial activity test (agar dilution MIC). It counts as cell-based. The settings on record: for MIC: read-out: Minimum inhibitory concentration. As to the method:
as §3

The test system of series [13] is Pseudomonas aeruginosa 1771M. The series is described as follows: Antibacterial activity test (agar dilution MIC). Format: cell-based. The conditions noted are these: for MIC: Pseudomonas aeruginosa, 1771M, read-out: Minimum inhibitory concentration. As for the experimental part: as §3
Series [14] concerns Staphylococcus aureus SG511. The series is described as follows: Antibacterial activity test (agar dilution MIC). Format: cell-based. The settings on record: for MIC: read-out: Minimum inhibitory concentration. As to the method: as §3
Series [15] concerns Klebsiella oxytoca 1082E. The series is described as follows: Antibacterial activity test (agar dilution MIC). It counts as cell-based. The settings on record: for MIC: read-out: Minimum inhibitory concentration. As for the experimental part:
as §3

Series [16] concerns Enterobacter cloacae P99. The series is described as follows: Antibacterial activity test (agar dilution MIC). The conditions noted are these: for MIC: read-out: Minimum inhibitory concentration. It counts as cell-based. As to the method:
as §3

The subject of series [17] is Streptococcus pyogenes 308A. Kind of series: Antibacterial activity test (agar dilution MIC). It counts as cell-based. The conditions noted are these: for MIC: read-out: Minimum inhibitory concentration. As to the method:
as §3

Series [18] relates to Salmonella typhimurium. Kind of series: Antibacterial activity test (agar dilution MIC). Format: cell-based. The settings on record: for MIC: Salmonella enterica, read-out: Minimum inhibitory concentration. As for the experimental part: as §3
Series [19] has as its system Escherichia coli DC2. The series is described as follows: Antibacterial activity test (agar dilution MIC). The conditions noted are these: for MIC: read-out: Minimum inhibitory concentration. It counts as cell-based. As for the experimental part: as §3
In series [20] the test system is Pseudomonas aeruginosa 9027. Kind of series: Antibacterial activity test (agar dilution MIC). Format: cell-based. The conditions noted are these: Pseudomonas aeruginosa 9027, agar; for MIC: read-out: Minimum inhibitory concentration. As for the experimental part: as §3
Series [21] relates to Staphylococcus aureus 503. The series is described as follows: Antibacterial activity test (agar dilution MIC). The settings on record: Staphylococcus aureus 503, agar; for MIC: read-out: Minimum inhibitory concentration. Format: cell-based. As for the experimental part:
as §3

The subject of series [22] is Escherichia coli 1507E. Kind of series: Antibacterial activity test (agar dilution MIC). It counts as cell-based. The conditions noted are these: for MIC: read-out: Minimum inhibitory concentration. As to the method:
as §3

Series [23] deals with Streptococcus faecium MD8b. Kind of series: Antibacterial activity test (agar dilution MIC). Format: cell-based. The conditions noted are these: for MIC: Enterococcus faecium, read-out: Minimum inhibitory concentration. As for the experimental part:
as §3

In series [24] the test system is Klebsiella aerogenes 1522E. The series is described as follows: Antibacterial activity test (agar dilution MIC). Format: cell-based. The settings on record: for MIC: read-out: Minimum inhibitory concentration. As to the method:
as §3

The test system of series [25] is Escherichia coli TEM. The series is described as follows: Antibacterial activity test (agar dilution MIC). Format: cell-based. The conditions noted are these: for MIC: Escherichia coli, read-out: Minimum inhibitory concentration. As for the experimental part:
as §3

≈ marks a conversion by molar mass, not a printed value. Read-outs that look alike come from different tables or passages of the source.

Chain of DHP-I (renal dehydropeptidase-I) (P16444 17-385): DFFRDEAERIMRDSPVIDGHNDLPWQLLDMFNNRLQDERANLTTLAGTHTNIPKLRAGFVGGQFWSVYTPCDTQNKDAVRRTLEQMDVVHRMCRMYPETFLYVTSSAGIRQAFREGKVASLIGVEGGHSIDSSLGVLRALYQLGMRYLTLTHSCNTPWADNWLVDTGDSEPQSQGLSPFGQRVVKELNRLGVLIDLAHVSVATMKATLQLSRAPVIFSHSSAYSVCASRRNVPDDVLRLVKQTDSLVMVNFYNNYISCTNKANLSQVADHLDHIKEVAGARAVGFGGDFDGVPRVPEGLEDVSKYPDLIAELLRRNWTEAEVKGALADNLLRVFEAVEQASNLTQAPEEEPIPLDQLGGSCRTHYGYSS
Chain of renal enzyme (DHP-I) (P16444 17-385): as above

A word on the half-life: it is the time in which the quantity being followed falls by half. One may read the AUC as concentration integrated over time. In general, Cmax refers to the highest concentration seen after dosing. One may read the Tmax as the time at which the peak concentration occurs. `C[C@@H](O)[C@H]1C(=O)N2C(C(=O)O)=C(S[C@@H]3CN[C@H](C(=O)NCCS(N)(=O)=O)C3)[C@H](C)[C@H]12` [Compound 10]: the “stability against DHP-I (in words)” value in series [1] was “a little more stable than meropenem against DHP-I and markedly more stable than imipenem”. Also, the PD50 in series [2] is on record as 0.47; in series [3] it was 2.31. The “times more efficient than meropenem (PD50 test)” value was 3 times in [2] (gram-negative strain, versus meropenem) and 3 times in series [3] (gram-positive strain, versus meropenem). Further, the half-life in series [4] is above 300 min; in series [5] (mouse, in vivo, sc), 19.2 ± 2.4 min. The AUC in series [5] (mouse, in vivo, sc, AUC 0-3 hr) was found to be 11900 ± 1130 ng·h/mL. The Cmax in [5] (mouse, in vivo, sc, read-out: Cmax) amounted to 16000 ± 960 ng/mL. For the same compound, in series [5] (mouse, in vivo, sc, read-out: Tmax), the time to peak (Tmax) was at most 19.8 min. Further, the “times as efficient as meropenem (bioavailability, Table 4)” value in series [5] (versus meropenem) is “ca. 3 times”.
For `CNS(=O)(=O)CCNC(=O)[C@@H]1C[C@H](SC2=C(C(=O)O)N3C(=O)[C@H]([C@@H](C)O)[C@H]3[C@H]2C)CN1` [Compound 11], the MIC turned out to be 0.195 µg/mL (≈ 0.409 µM) in series [6]; 0.195 µg/mL (≈ 0.409 µM) in series [7]; 0.004 µg/mL (≈ 0.00839 µM) in series [8]; 0.025 µg/mL (≈ 0.0525 µM) in series [9]; 0.195 µg/mL (≈ 0.409 µM) in series [10]; 0.025 µg/mL (≈ 0.0525 µM) in series [11]. Besides, the MIC in series [12] turned out to be 0.025 µg/mL (≈ 0.0525 µM); in series [13], 0.195 µg/mL (≈ 0.409 µM); in series [14], 0.098 µg/mL (≈ 0.206 µM); in series [15], 0.049 µg/mL (≈ 0.103 µM); in series [16], 0.049 µg/mL (≈ 0.103 µM); in series [17], 0.013 µg/mL (≈ 0.0273 µM). The MIC worked out at 0.025 µg/mL (≈ 0.0525 µM) in series [18]; 0.025 µg/mL (≈ 0.0525 µM) in series [19]; 0.391 µg/mL (≈ 0.82 µM) in [20]; 0.098 µg/mL (≈ 0.206 µM) in series [21]; 0.013 µg/mL (≈ 0.0273 µM) in series [22]; 6.25 µg/mL (≈ 13.1 µM) in series [23]. The MIC in series [24] came out at 0.049 µg/mL (≈ 0.103 µM); in series [25], 0.013 µg/mL (≈ 0.0273 µM).
Regarding `C[C@@H](O)[C@H]1C(=O)N2C(C(=O)O)=C(S[C@@H]3CN[C@H](C(=O)N(C)C)C3)[C@H](C)[C@H]12` [meropenem, reference compound], the PD50 in series [2] was 1.24. Further, in series [3], the PD50 is given as 7.16. For the same compound, in [5], the Cmax worked out at 7600 ± 550 ng/mL, the T1/2 turned out to be 14.4 ± 13.2 min and the Tmax was found to be 12.6 ± 2.4 min. The AUC in series [5] (mouse, in vivo, sc, AUC 0-2 hr) was found to be 3290 ± 290 ng·h/mL.
As for `CNC(=O)CCNC(=O)[C@@H]1C[C@H](SC2=C(C(=O)O)N3C(=O)[C@H]([C@@H](C)O)[C@H]3[C@H]2C)CN1` [Compound 2], the MIC in series [6] amounted to 0.781 µg/mL (≈ 1.77 µM); in series [7], 0.781 µg/mL (≈ 1.77 µM); in series [8] it was 0.013 µg/mL (≈ 0.0295 µM); in series [9] it was 0.049 µg/mL (≈ 0.111 µM); in series [10], 0.781 µg/mL (≈ 1.77 µM); in series [11], 0.025 µg/mL (≈ 0.0568 µM). Also, the MIC in series [12] was found to be 0.049 µg/mL (≈ 0.111 µM); in [13], 0.391 µg/mL (≈ 0.888 µM); in series [14] it was 0.391 µg/mL (≈ 0.888 µM); in series [15] it was 0.098 µg/mL (≈ 0.222 µM); in [16] it was 0.049 µg/mL (≈ 0.111 µM); in [17] it was 0.013 µg/mL (≈ 0.0295 µM). For the same compound, the MIC in [18] is 0.049 µg/mL (≈ 0.111 µM); in [19] it was 0.098 µg/mL (≈ 0.222 µM); in series [20] it was 0.781 µg/mL (≈ 1.77 µM); in series [21], 0.195 µg/mL (≈ 0.443 µM); in [22] it was 0.025 µg/mL (≈ 0.0568 µM); in series [23], 12.5 µg/mL (≈ 28.4 µM). Besides, the MIC in series [24] is 0.049 µg/mL (≈ 0.111 µM); in [25], 0.025 µg/mL (≈ 0.0568 µM).
Compound `C[C@@H](O)[C@H]1C(=O)N2C(C(=O)O)=C(SCCN=CN)C[C@H]12` [imipenem, reference compound] showed a half-life in series [4] (renal enzyme DHP-I) of 30 min.
For the compound `C[C@@H](O)[C@H]1C(=O)N2C(C(=O)O)=C(S[C@@H]3CN[C@H](C(=O)NCCS(=O)(=O)NCCO)C3)[C@H](C)[C@H]12` [Compound 13], the Minimum inhibitory concentration in series [6] came out at 1.563 µg/mL (≈ 3.09 µM); in series [7] it was 1.563 µg/mL (≈ 3.09 µM); in series [8] it was 0.007 µg/mL (≈ 0.0138 µM); in [9] it was 0.013 µg/mL (≈ 0.0257 µM); in series [10], 0.195 µg/mL (≈ 0.385 µM); in series [11], 0.013 µg/mL (≈ 0.0257 µM). Further, the Minimum inhibitory concentration in series [12] came to 0.025 µg/mL (≈ 0.0493 µM); in series [13] (Pseudomonas aeruginosa 1771M, agar), 0.391 µg/mL (≈ 0.772 µM); in series [14] it was 0.195 µg/mL (≈ 0.385 µM); in [15] it was 0.049 µg/mL (≈ 0.0967 µM); in series [16] it was 0.049 µg/mL (≈ 0.0967 µM); in series [17], 0.013 µg/mL (≈ 0.0257 µM). Also, the Minimum inhibitory concentration in [18] was 0.025 µg/mL (≈ 0.0493 µM); in series [19], 0.025 µg/mL (≈ 0.0493 µM); in series [20] it was 1.563 µg/mL (≈ 3.09 µM); in [21], 0.098 µg/mL (≈ 0.193 µM); in series [22] it was 0.025 µg/mL (≈ 0.0493 µM); in series [23], 12.5 µg/mL (≈ 24.7 µM). The Minimum inhibitory concentration in series [24] came to 0.025 µg/mL (≈ 0.0493 µM); in series [25] (Escherichia coli TEM, agar), 0.013 µg/mL (≈ 0.0257 µM).
